Assays:
GPR109a = GPR109a RNA expression in differentiated Caco-2 cells (qPCR); assay type: cell-based
IL-6, CD11b, TLR4 = experiment: Gene expression in the brain of BALB/c mice (qPCR); assay type: in vivo; conditions: vs vehicle control
Procedure: BALB/c mice were administered live biotherapeutic and tissues were isolated for analysis of gene expression using qPCR.

HDAC = HDAC inhibition on HT-29 cell lysate; assay type: biochemical
Procedure: Pure cultures of bacteria were grown anaerobically in YCFA+ broth until they reached their stationary growth phase. Cultures were centrifuged at 5,000×g for 5 minutes and the cell-free supernatant (CFS) was filtered using a […] (Millipore, UK). 1 mL aliquots of the CFS were stored at −80° C. until use. Sodium butyrate, hexanoic and valeric acid were obtained from Sigma Aldrich (UK) and suspensions were prepared in YCFA+ broth.
To investigate which metabolites were responsible for the strain-induced HDAC inhibition, different concentrations of hexanoic acid, valeric acid and sodium butyrate were measured for their HDAC inhibition on whole HT-29 cells and on HT-29 cell lysate.

splenocytes = experiment: Spleen cytokine assay (ex-vivo splenocyte assay); assay type: in vivo, mouse; conditions: mice administered MRx0029
Procedure: Animals were allowed to habituate to their holding room for one week after arrival into the animal unit. They receive oral gavage (200 μL dose) of live biotherapeutics at a dose of 1×10^9 CFU for 6 consecutive days between 15:00 and 17:00. On day 7, the animals are decapitated, and tissues are harvested for experimentation.
Spleens were collected immediately in 5 mL RPMI media following sacrifice and cultured immediately. Spleen cells were first homogenised in this RPMI media, followed by 5 mins incubation with 1 ml of RBC lysis buffer (11814389001 ROCHE, Sigma). A further 10 ml of RPMI media was added, followed by 200G centrifugation for 5 mins. The supernatant was then filtered through 40 um strainer. Cells were counted and seeded (4,000,000/mL media). After 2.5 h of adaptation, cells were stimulated with lipopolysaccharide (LPS-2 μg/ml) or concanavalin A (ConA-2.5 μg/ml) for 24 h. Following stimulation, the supernatants were harvested to assess the cytokine release using Proinflammatory Panel 1 (mouse) V-PLEX Kit (Meso Scale Discovery, Maryland, USA) for TNF-α, IL-10, IL-1β, Interferon γ, CXCL2 and IL6. The analyses were performed using MESO QuickPlex SQ 120, SECTOR Imager 2400, SECTOR Imager 6000, SECTOR S 600.
The ex-vivo splenocyte assay involves challenging the splenocytes (cells isolated from the spleen—a main organ involved in immune defence), with a bacterio- or viral-mimetic challenge.

TJP1 and Occludin = experiment: Ex vivo gene expression in the gut of mice fed with MRx0029; conditions: colon region of the murine intestine
Procedure: The in vitro results were compared with data from the ex vivo parallel analysis on the gut of mice fed with MRx0029. Gene expression of TJP1 and Occludin was quantified in the colon and ileum. […] Animals were allowed to habituate to their holding room for one week after arrival into the animal unit. They receive oral gavage (200 μL dose) of live biotherapeutics at a dose of 1×10^9 CFU for 6 consecutive days between 15:00 and 17:00. On day 7, the animals are decapitated, and tissues are harvested for experimentation. Animals were sacrificed in a random fashion regarding treatment and testing condition; sampling occurred between 9.00 a.m. and 2:30 p.m. Trunk blood was collected in potassium EDTA (Ethylene Diamine Tetra Acetic Acid) tubes and spun for 15 min at 4000 g. Plasma was isolated and stored at −80° C. for further analysis. The brain was quickly excised, dissected and each brain region was snap-frozen on dry ice and stored at −80° C. for further analysis. Spleen was removed, collected in 5 mL RPMI media (with L-glutamine and sodium bicarbonate, R8758 Sigma+10% FBS (F7524, Sigma)+1% Pen/Strep (P4333, Sigma)) and processed immediately after culls for ex-vivo immune stimulation. […]

HDAC1 = target: T1, HDAC1 (Homo sapiens, UniProt Q13547); experiment: Specific HDAC activity analysis (fluorogenic assay kit); assay type: biochemical; conditions: cell free supernatant diluted 1 in 10
T1 construct: purchased BPS Bioscience, CA
Procedure: (§1) Specific HDAC inhibition activity was analysed for HDAC1, 2, 3, 4, 5, 6, 9 using fluorogenic assay kits for each type of HDAC (BPS Bioscience, CA). Assays were conducted according to manufacturer's instructions and each sample were performed in replicates. Cell free supernatants were diluted 1 in 10 and exposed to specific HDAC proteins provided in the kit to maintain consistency between methods.
(§2) The specific HDAC inhibition profile of the test bacteria strain was investigated. Specific HDAC inhibition assays (BPS Bioscience, CA) were carried out for Class I and Class II HDACs. The ability of the bacterial strain to inhibit HDAC enzymes was compared to butyrate, hexanoic and valeric acid.

HDAC2 = target: T2, HDAC2 (Homo sapiens, UniProt Q92769); experiment: as above; assay type: biochemical; conditions: cell free supernatant diluted 1 in 10
T2 construct: purchased BPS Bioscience, CA
Procedure: as §1, §2

HDAC3 = target: T3, HDAC3 (Homo sapiens, UniProt O15379); experiment: as above; assay type: biochemical; conditions: cell free supernatant diluted 1 in 10
T3 construct: purchased BPS Bioscience, CA
Procedure: as §1, §2

class II HDACs = experiment: as above; assay type: biochemical; conditions: data not shown
Procedure: as §1, §2

T1 sequence (Q13547 whole entry): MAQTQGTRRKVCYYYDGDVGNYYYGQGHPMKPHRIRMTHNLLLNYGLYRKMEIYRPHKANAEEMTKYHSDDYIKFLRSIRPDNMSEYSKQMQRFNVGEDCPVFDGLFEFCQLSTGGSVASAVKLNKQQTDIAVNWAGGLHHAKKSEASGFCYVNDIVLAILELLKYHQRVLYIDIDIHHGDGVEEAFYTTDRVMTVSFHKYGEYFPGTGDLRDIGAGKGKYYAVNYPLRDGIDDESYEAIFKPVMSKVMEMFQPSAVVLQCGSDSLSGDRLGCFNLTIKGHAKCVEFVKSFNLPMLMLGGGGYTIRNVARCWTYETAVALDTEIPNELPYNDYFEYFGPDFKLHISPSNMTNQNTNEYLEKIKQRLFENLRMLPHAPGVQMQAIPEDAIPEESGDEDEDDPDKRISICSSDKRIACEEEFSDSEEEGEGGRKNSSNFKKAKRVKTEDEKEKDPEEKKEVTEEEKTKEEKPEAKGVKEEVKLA
T3 sequence (O15379 whole entry): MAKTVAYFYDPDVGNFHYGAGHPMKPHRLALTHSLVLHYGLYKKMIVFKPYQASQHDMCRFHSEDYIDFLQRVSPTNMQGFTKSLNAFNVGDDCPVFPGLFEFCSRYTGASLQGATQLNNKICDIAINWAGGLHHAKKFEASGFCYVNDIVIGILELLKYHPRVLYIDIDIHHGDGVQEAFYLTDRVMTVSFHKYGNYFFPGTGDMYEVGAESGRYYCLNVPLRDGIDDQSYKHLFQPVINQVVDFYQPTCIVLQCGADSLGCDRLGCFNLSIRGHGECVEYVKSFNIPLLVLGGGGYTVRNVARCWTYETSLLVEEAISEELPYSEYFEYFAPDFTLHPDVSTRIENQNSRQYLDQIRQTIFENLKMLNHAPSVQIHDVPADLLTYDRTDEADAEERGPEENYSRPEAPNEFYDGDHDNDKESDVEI
T3 sequence (Q9Y618 395-489 partner limits assumed): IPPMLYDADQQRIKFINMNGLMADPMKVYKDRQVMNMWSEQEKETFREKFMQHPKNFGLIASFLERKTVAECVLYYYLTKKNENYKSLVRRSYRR
T2 sequence (Q92769 whole entry): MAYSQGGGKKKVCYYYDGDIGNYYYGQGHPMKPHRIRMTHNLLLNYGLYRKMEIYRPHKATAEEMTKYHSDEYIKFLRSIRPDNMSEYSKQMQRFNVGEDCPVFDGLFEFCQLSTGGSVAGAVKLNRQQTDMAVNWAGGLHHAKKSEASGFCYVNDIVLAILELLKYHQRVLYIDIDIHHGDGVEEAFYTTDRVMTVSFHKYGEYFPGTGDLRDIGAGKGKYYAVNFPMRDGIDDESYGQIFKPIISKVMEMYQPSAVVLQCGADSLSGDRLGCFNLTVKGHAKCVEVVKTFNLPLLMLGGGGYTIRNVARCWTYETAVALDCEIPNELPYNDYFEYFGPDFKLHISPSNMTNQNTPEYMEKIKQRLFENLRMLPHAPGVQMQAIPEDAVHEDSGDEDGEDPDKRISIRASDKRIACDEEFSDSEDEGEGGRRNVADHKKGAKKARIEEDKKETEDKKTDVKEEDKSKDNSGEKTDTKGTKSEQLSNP

## Megasphaera massiliensis MRx0029
GPR109a; PMA plus supernatant vs PMA alone (or PMA in YCFA+ medium)
  expression of GPR109a RNA with PMA: greater expression of GPR109a RNA
GPR109a; without PMA
  expression of GPR109a: increased expression of GPR109a
IL-6, CD11b, TLR4
  TLR4 expression in the amygdala: significantly increase TLR4 expression
HDAC
  HDAC inhibition on HT-29 cell lysate: strong HDAC inhibition
splenocytes; following a challenge with LPS
  interferon-γ production from splenocytes: reduction
  interleukin-1β production from splenocytes: reduction
  interleukin-6 production from splenocytes: reduction
splenocytes
  levels of the chemoattractant CXCL1 from splenocytes: increase in the levels of the chemoattractant CXCL1
TJP1 and Occludin
  TJP1 gene expression in the colon: significantly up-regulate
HDAC1
  inhibition of HDAC1: very potent inhibitor
HDAC2
  inhibition of HDAC2: very potent inhibitor
HDAC3
  inhibition of HDAC3: very potent inhibitor
Class II HDACs
  inhibition of class II HDACs: not as significant

Reference: US11419902B2, “Compositions comprising bacterial strains” (4D Pharma Research Limited, priority 2018, dated 2022)
